Consider one compound from US8597620B2, “Composition comprising a tocopherol phosphate and preparation process” (LVMH Recherche, priority 2010, dated 2013).

The nature of the series: Assaying of tocopherol phosphate by HPLC in the concentrated aqueous solution (state of dissolution). In kind it is physicochemical. The conditions noted are these: concentrated aqueous solution of Example 1 (3.5% PPG-6-Decyltetradeceth-20, 17.4% 1,2-pentanediol, 8.7% γ-TPNa added, water), UV 290 nm, ambient temperature. As to the method: Method for the Assaying of Tocopherol Phosphate by HPLC
The concentrated solution of γ-TPNa obtained in Example 1 and the compositions prepared in Examples 2 to 5 are assayed for tocopherol phosphate by HPLC according to the following conditions:
Elution gradient:—Eluent A: sodium acetate/acetic acid buffer pH 4.2 • Eluent B=methanol/THF (80/20)
Preparation of the Solutions
Diluent: Eluent A/eluent B (20/80 v/v)
Standard solution for the calibration=solution of γ-TPNa at 0.08 mg/ml of diluent.
Solution for the assaying of the concentrated solution (Ex. 1):
100 mg of the concentrated aqueous solution are withdrawn and diluted in 100 ml of diluent.

As for `Cc1c(OP(=O)([O-])[O-])cc2c(c1C)OC(C)(CCCC(C)CCCC(C)CCCC(C)C)CC2.[Na+].[Na+]` (stereo not shown) [γ-TPNa, Sodium salt of γ-tocopherol phosphate], the “Result of the assaying of the γ-TPNa in the concentrated solution (dissolved amount)” value came to 8.7 % by weight.
